Measurements from the supplement of paper PMC11061612.

Experiments:
Carboplatin = compound: C1CC(C1)(C(=O)[O-])C(=O)[O-].N.N.[Pt+2] [Carboplatin]; conditions: max 10 µM
Procedure, shortened: (§1)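 Cancer cell lines were seeded into 1536-well plates in 7.5 μl medium (DMEM/F12 or RPMI, 10% FBS), held 24 hours at 37°C and 5% CO2, and dosed for 72 hours with final DMSO typically 0.2%. Luminescence from CellTiter-Glo 2.0, scaled between blank-well and DMSO-well means, served as viability. The single-agent IC50 was obtained from dose-response fits with a non-linear mixed effects model, each fit being a two-parameter logistic curve.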

AZD5363 = compound: C1CN(CCC1(C(=O)N[C@@H](CCO)C2=CC=C(C=C2)Cl)N)C3=NC=NC4=C3C=CN4 [AZD5363]; conditions: max 10 µM
Procedure, shortened: as §1

AZD1775 = compound: C=CCn1c(=O)c2cnc(Nc3ccc(N4CCN(C)CC4)cc3)nc2n1-c1cccc(C(C)(C)O)n1 [AZD1775]; conditions: max 3 µM
Procedure, shortened: as §1

Trametinib = compound: CC(=O)Nc1cccc(-n2c(=O)n(C3CC3)c(=O)c3c(Nc4ccc(I)cc4F)n(C)c(=O)c(C)c32)c1 [Trametinib]; conditions: max 1 µM
Procedure, shortened: as §1

Paclitaxel = compound: CC(=O)O[C@H]1C(=O)[C@@]2(C)[C@H]([C@H](OC(=O)c3ccccc3)[C@]3(O)C[C@H](OC(=O)[C@H](O)[C@@H](NC(=O)c4ccccc4)c4ccccc4)C(C)=C1C3(C)C)[C@]1(OC(C)=O)CO[C@@H]1C[C@@H]2O [Paclitaxel]; conditions: max 3 µM
Procedure, shortened: as §1

Palbociclib = compound: CC(=O)c1c(C)c2cnc(Nc3ccc(N4CCNCC4)cn3)nc2n(C2CCCC2)c1=O [Palbociclib]; conditions: max 10 µM
Procedure, shortened: as §1

AZD1390 = compound: CC(C)n1c(=O)n(C)c2cnc3cc(F)c(-c4ccc(OCCCN5CCCCC5)nc4)cc3c21 [AZD1390]; conditions: max 0.3 µM
Procedure, shortened: as §1

Venetoclax = compound: CC1(C)CCC(CN2CCN(c3ccc(C(=O)NS(=O)(=O)c4ccc(NCC5CCOCC5)c([N+](=O)[O-])c4)c(Oc4cnc5[nH]ccc5c4)c3)CC2)=C(c2ccc(Cl)cc2)C1 [Venetoclax]; conditions: max 1 µM
Procedure, shortened: as §1

Dasatinib = compound: CC1=C(C(=CC=C1)Cl)NC(=O)C2=CN=C(S2)NC3=CC(=NC(=N3)C)N4CCN(CC4)CCO [Dasatinib]; conditions: max 2 µM
Procedure, shortened: as §1

SG3199 = compound: CC1=CN2[C@@H](C1)C=NC3=CC(=C(C=C3C2=O)OC)OCCCCCOC4=C(C=C5C(=C4)N=C[C@@H]6CC(=CN6C5=O)C)OC [SG3199]; conditions: max 0.001 µM
Procedure, shortened: as §1

AZD2811 = compound: CCN(CCO)CCCOc1ccc2c(Nc3cc(CC(=O)Nc4cccc(F)c4)[nH]n3)ncnc2c1 [AZD2811]; conditions: max 1 µM
Procedure, shortened: as §1

SN-38 = compound: CCc1c2c(nc3ccc(O)cc13)-c1cc3c(c(=O)n1C2)COC(=O)[C@]3(O)CC [SN-38]; conditions: max 0.3 µM
Procedure, shortened: as §1

AZD0156 = compound: CN(C)CCCOc1ccc(-c2ccc3ncc4c(c3c2)n(C2CCOCC2)c(=O)n4C)cn1 [AZD0156]; conditions: max 3 µM
Procedure, shortened: as §1

AZD4320 = compound: CN(CC[C@H](CSC1=CC=CC=C1)NC2=C(C=C(C=C2)S(=O)(=O)NC(=O)C3=CC=C(C=C3)N4CCC(CC4)[C@H](C5=CC=CC=C5C6=CC=C(C=C6)Cl)O)S(=O)(=O)C(F)(F)F)CCO [AZD4320]; conditions: max 1 µM
Procedure, shortened: as §1

Alisertib = compound: COc1cc(Nc2ncc3c(n2)-c2ccc(Cl)cc2C(c2c(F)cccc2OC)=NC3)ccc1C(=O)O [Alisertib]; conditions: max 10 µM
Procedure, shortened: as §1

Etoposide = compound: COc1cc([C@@H]2c3cc4c(cc3[C@@H](O[C@@H]3O[C@@H]5CO[C@@H](C)O[C@H]5[C@H](O)[C@H]3O)[C@H]3COC(=O)[C@H]23)OCO4)cc(OC)c1O [Etoposide]; conditions: max 10 µM
Procedure, shortened: as §1

Gefitinib = compound: COc1cc2ncnc(Nc3ccc(F)c(Cl)c3)c2cc1OCCCN1CCOCC1 [Gefitinib]; conditions: max 10 µM
Procedure, shortened: as §1

Prexasertib = compound: COc1cccc(OCCCN)c1-c1cc(Nc2cnc(C#N)cn2)n[nH]1 [Prexasertib]; conditions: max 1 µM
Procedure, shortened: as §1

Doxorubicin = compound: COc1cccc2c1C(=O)c1c(O)c3c(c(O)c1C2=O)C[C@@](O)(C(=O)CO)C[C@@H]3O[C@H]1C[C@H](N)[C@H](O)[C@H](C)O1 [Doxorubicin]; conditions: max 1 µM
Procedure, shortened: as §1

AZD5153 = compound: COc1nnc2ccc(N3CCC(c4ccc(OCCN5CCN(C)C(=O)[C@H]5C)cc4)CC3)nn12 [AZD5153]; conditions: max 1 µM
Procedure, shortened: as §1

Lapatinib = compound: CS(=O)(=O)CCNCc1ccc(-c2ccc3ncnc(Nc4ccc(OCc5cccc(F)c5)c(Cl)c4)c3c2)o1 [Lapatinib]; conditions: max 10 µM
Procedure, shortened: as §1

AZD8186 = compound: C[C@@H](Nc1cc(F)cc(F)c1)c1cc(C(=O)N(C)C)cc2c(=O)cc(N3CCOCC3)oc12 [AZD8186]; conditions: max 10 µM
Procedure, shortened: as §1

Crizotinib = compound: C[C@@H](Oc1cc(-c2cnn(C3CCNCC3)c2)cnc1N)c1c(Cl)ccc(F)c1Cl [Crizotinib]; conditions: max 10 µM
Procedure, shortened: as §1

Savolitinib = compound: C[C@@H](c1ccc2nccn2c1)n1nnc2ncc(-c3cnn(C)c3)nc21 [Savolitinib]; conditions: max 1 µM
Procedure, shortened: as §1

AZD6738 = compound: C[C@@H]1COCCN1C2=NC(=NC(=C2)C3(CC3)[S@](=N)(=O)C)C4=C5C=CNC5=NC=C4 [AZD6738]; conditions: max 10 µM
Procedure, shortened: as §1

AZD5991 = compound: Cc1c2c(nn1C)CSCc1cc(n(C)n1)CSc1cc(c3ccccc3c1)OCCCc1c(C(=O)O)n(C)c3c-2c(Cl)ccc13 [AZD5991]; conditions: max 1 µM
Procedure, shortened: as §1

AZD7648 = compound: Cc1cc2ncnn2cc1Nc1ncc2c(n1)n(C1CCOCC1)c(=O)n2C [AZD7648]; conditions: max 10 µM
Procedure, shortened: as §1

Taselisib = compound: Cc1nc(-c2cn3c(n2)-c2ccc(-c4cnn(C(C)(C)C(N)=O)c4)cc2OCC3)n(C(C)C)n1 [Taselisib]; conditions: max 10 µM
Procedure, shortened: as §1

Selumetinib = compound: Cn1cnc2c(F)c(Nc3ccc(Br)cc3Cl)c(C(=O)NOCCO)cc21 [Selumetinib]; conditions: max 10 µM
Procedure, shortened: as §1

SRA737 = compound: N#Cc1cnc(Nc2cc(NC[C@H]3CNCCO3)c(C(F)(F)F)cn2)cn1 [SRA737]; conditions: max 10 µM
Procedure, shortened: as §1

MK-2206 = compound: NC1(c2ccc(-c3nc4ccn5c(=O)[nH]nc5c4cc3-c3ccccc3)cc2)CCC1 [MK-2206]; conditions: max 10 µM
Procedure, shortened: as §1

Gemcitabine = compound: Nc1ccn([C@@H]2O[C@H](CO)[C@@H](O)C2(F)F)c(=O)n1 [Gemcitabine]; conditions: max 0.3 µM
Procedure, shortened: as §1

[1] = compound: O=C(Nc1ccc2[nH]nc(-c3ccncc3)c2c1)[C@@H]1CCN(CC(=O)N2CCN(c3ccc(-c4ncccn4)cc3)CC2)C1; conditions: max 5 µM
Procedure, shortened: as §1

Olaparib = compound: O=C(c1cc(Cc2n[nH]c(=O)c3ccccc23)ccc1F)N1CCN(C(=O)C2CC2)CC1 [Olaparib]; conditions: max 10 µM
Procedure, shortened: as §1

5-Fluorouracil = compound: O=c1[nH]cc(F)c(=O)[nH]1 [5-Fluorouracil]; conditions: max 20 µM
Procedure, shortened: as §1

Cell Line	IC50, cell viability 72 h (Carboplatin) [µM]	IC50, cell viability 72 h (AZD5363) [µM]	IC50, cell viability 72 h (AZD1775) [nM]	IC50, cell viability 72 h (Trametinib) [nM]	IC50, cell viability 72 h (Paclitaxel) [nM]	IC50, cell viability 72 h (Palbociclib) [µM]	IC50, cell viability 72 h (AZD1390) [nM]	IC50, cell viability 72 h (Venetoclax) [nM]	IC50, cell viability 72 h (Dasatinib) [nM]	IC50, cell viability 72 h (SG3199) [nM]	IC50, cell viability 72 h (AZD2811) [nM]	IC50, cell viability 72 h (SN-38) [nM]	IC50, cell viability 72 h (AZD0156) [nM]	IC50, cell viability 72 h (AZD4320) [nM]	IC50, cell viability 72 h (Alisertib) [nM]	IC50, cell viability 72 h (Etoposide) [µM]	IC50, cell viability 72 h (Gefitinib) [µM]	IC50, cell viability 72 h (Prexasertib) [nM]	IC50, cell viability 72 h (Doxorubicin) [nM]	IC50, cell viability 72 h (AZD5153) [nM]	IC50, cell viability 72 h (Lapatinib) [µM]	IC50, cell viability 72 h (AZD8186) [µM]	IC50, cell viability 72 h (Crizotinib) [µM]	IC50, cell viability 72 h (Savolitinib) [nM]	IC50, cell viability 72 h (AZD6738) [nM]	IC50, cell viability 72 h (AZD5991) [nM]	IC50, cell viability 72 h (AZD7648) [µM]	IC50, cell viability 72 h (Taselisib) [nM]	IC50, cell viability 72 h (Selumetinib) [µM]	IC50, cell viability 72 h (SRA737) [µM]	IC50, cell viability 72 h (MK-2206) [nM]	IC50, cell viability 72 h (Gemcitabine) [nM]	IC50, cell viability 72 h [1] [nM]	IC50, cell viability 72 h (Olaparib) [µM]	IC50, cell viability 72 h (5-Fluorouracil) [µM]
LS-513 (Colorectal Carcinoma)	> 10	> 10	789	3.66	70	4.87	> 300	> 1000	> 2000	> 1	> 1000	42.6	> 3000	> 1000	1450	> 10	> 10	87	> 1000	334	4.21	> 10	4.09	> 1000	2760	> 1000	> 10	1300	0.419	6.76	2310	28.2	304	> 10	7.25
MDA-MB-157 (Breast Carcinoma)	> 10	> 10	973	> 1000	132	> 10	> 300	> 1000	> 2000	> 1	> 1000	62.6	> 3000	> 1000	> 10000	8.86	> 10	10	> 1000	398	> 10	> 10	> 10	> 1000	926	457	> 10	> 10000	> 10	1.23	> 10000	213	> 5000	> 10	10.6
MDA-MB-231 (Breast Carcinoma)	> 10	> 10	> 3000	204	456	> 10	> 300	> 1000	1900	> 1	> 1000	109	> 3000	> 1000	> 10000	> 10	> 10	173	592	374	> 10	> 10	> 10	> 1000	9530	> 1000	> 10	> 10000	9.41	> 10	> 10000	184	1910	> 10	> 20
MFH-ino (Other Solid Carcinomas)	> 10	> 10	> 3000	> 1000	1270	> 10	> 300	> 1000	> 2000	> 1	> 1000	39.8	> 3000	> 1000	> 10000	> 10	> 10	> 1000	> 1000	> 1000	> 10	> 10	> 10	> 1000	> 10000	> 1000	> 10	> 10000	> 10	> 10	> 10000	71.7	3670	> 10	> 20
NALM-6 (B-Lymphoblastic Leukemia)	> 10	1.37	509	> 1000	5.65	1.41	> 300	380	1140	> 1	57	5.89	> 3000	146	238	0.302	> 10	11.7	106	31.9	8.22	1.22	1.17	> 1000	1050	> 1000	> 10	293	> 10	2.31	816	3.63	> 5000	> 10	> 20
